According to patent US8951934B2, “Active compound combinations” (Bayer CropScience AG, priority 2008, dated 2015):
Where two headings read alike, the source gives them in different places.

How the values were obtained:
Type in all cases: in vivo
Pyrenophora teres = assay: Pyrenophora teres-test (barley)/preventive; conditions: 192 h, read-out: Efficacy in %
Source text: (§1) The expected fungicidal action for a given combination of two or three active compounds can be calculated as follows, according to S. R. Colby (“Calculating Synergistic and Antagonistic Responses of Herbicide Combinations”, Weeds 1961 15, 20-22):
(§2) If • X is the efficacy when employing active compound A at an application rate of m g/ha, • Y is the efficacy when employing active compound B at an application rate of n g/ha and • E is the efficacy when employing active compounds A and B at application rates of m and n g/ha,
(§3) Here, the efficacy is determined in %. 0% means an efficacy which corresponds to that of the control, whereas an efficacy of 100% means that no infection is observed.
(§4) If the actual fungicidal action exceeds the calculated value, the action of the combination is superadditive, i.e. a synergistic effect is present. In this case, the actually observed efficacy must exceed the value calculated using the above formula for the expected efficacy (E).
Pyrenophora teres-Test (Barley)/Preventive
(§5) Solvent: 49 parts by weight of n,n-dimethylacetamid
(§6) Emulsifier: 1 part by weight of alkylaryl polyglycol ether
(§7) To produce a suitable preparation of active compound, 1 part by weight of active compound or active compound combination is mixed with the stated amounts of solvent and emulsifier, and the concentrate is diluted with water to the desired concentration.
(§8) To test for preventive activity, young plants are sprayed with the preparation of active compound or active compound combination at the stated rate of application.
After the spray coating has been dried on, the plants are sprayed with a spore suspension of Pyrenophora teres. The plants remain for 48 hours in an incubation cabinet at approximately 20° C. and a relative atmospheric humidity of approximately 100%.
The plants are placed in the greenhouse at a temperature of approximately 20° C. and a relative atmospheric humidity of approximately 80%.
The test is evaluated 8 days after the inoculation. 0% means an efficacy which corresponds to that of the control, while an efficacy of 100% means that no disease is observed.

Uromyces appendiculatus = assay: Uromyces test (beans)/protective; conditions: protective spray, evaluated 10 days after inoculation
Source text: as §1, §2, §3, §4
Uromyces Test (Beans)/Protective
(§9) Solvent: 24,5 parts by weight of acetone • 24,5 parts by weight of dimethylacetamide
as §6
(§10) To produce a suitable preparation of active compound, 1 part by weight of active compound is mixed with the stated amounts of solvent and emulsifier, and the concentrate is diluted with water to the desired concentration.
(§11) To test for protective activity, young plants are sprayed with the preparation of active compound at the stated rate of application. After the spray coating has dried on, the plants are inoculated with an aqueous spore suspension of the causal agent of bean rust (Uromyces appendiculatus) and then remain for 1 day in an incubation cabinet at approximately 20° C. and a relative atmospheric humidity of 100%.
(§12) The plants are then placed in a greenhouse at approximately 21° C. and a relative atmospheric humidity of approximately 90%.
(§13) The test is evaluated 10 days after the inoculation. 0% means an efficacy which corresponds to that of the control, while an efficacy of 100% means that no disease is observed.

Septoria tritici = assay: Septoria tritici-test (wheat)/preventive; conditions: preventive spray, evaluated 21 days after inoculation
Source text: as §1, §2, §3, §4
Septoria tritici-Test (Wheat)/Preventive
as §5, §6, §7, §8
After the spray coating has been dried on, the plants are sprayed with a spore suspension of Septoria tritici. The plants remain for 48 hours in an incubation cabinet at approximately 20° C. and a relative atmospheric humidity of approximately 100% and afterwards for 60 hours at approximately 15° C. in a translucent incubation cabinet at a relative atmospheric humidity of approximately 100%.
The plants are placed in the greenhouse at a temperature of approximately 15° C. and a relative atmospheric humidity of approximately 80%.
The test is evaluated 21 days after the inoculation. 0% means an efficacy which corresponds to that of the control, while an efficacy of 100% means that no disease is observed.

Sphaerotheca fuliginea = assay: Sphaerotheca test (cucumbers)/protective; conditions: protective spray, evaluated 7 days after inoculation
Source text: as §1, §2, §3, §4
Sphaerotheca Test (Cucumbers)/Protective
as §9
(§14) Emulsifier: 1 part by weight of alkylaryl polyglycol ether […]
(§15) The test is evaluated 7 days after the inoculation. […]

Venturia inaequalis = assay: Venturia test (apples)/protective; conditions: protective spray, evaluated 10 days after inoculation
Source text: as §1, §2, §3, §4
Venturia Test (Apples)/Protective
as §9, §6, §10
as §11, with “conidia” for “spore”, “apple scab (Venturia inaequalis)” for “bean rust (Uromyces appendiculatus)”
as §12, §13

[1] = tested on: Blumeria graminis f.sp. tritici; assay: Blumeria test (wheat)/preventive; conditions: preventive spray, evaluated 7 days after inoculation
Source text: as §1, §2, §3, §4
Blumeria Test (Wheat)/Preventive
as §5, §14, §15

[2] = barley, preventive spray, 62.5 ppm, evaluated 8 days after inoculation

## CO/N=C(/C1=NOCCO1)c1ccccc1Oc1ncnc(Oc2ccccc2Cl)c1F [Ex B1 Fluoxastrobin, Fluoxastrobin]
Pyrenophora teres; [2]
  pest or weed control at 62.5 ppm: 67%

## CO/N=C(/C(=O)OC)c1ccccc1CO/N=C(\C)c1cccc(C(F)(F)F)c1 [Ex B1 Trifloxystrobin, Trifloxystrobin]
Uromyces appendiculatus; 1 ppm
  Efficacy in %: 70%
Septoria tritici; 62.5 ppm
  Efficacy in %: 94%

## Cc1cc(O)no1 [Ex B2 Hymexazol, Hymexazol]
Pyrenophora teres; barley, preventive spray, 1000 ppm, evaluated 8 days after inoculation
  pest or weed control at 1000 ppm: 0%

## CC(C)C1CCC(Cc2ccc(Cl)cc2)C1(O)Cn1cncn1 (stereo not drawn) [Ex B2 Ipconazole, Ipconazole]
Sphaerotheca fuliginea; 5 ppm
  Efficacy in %: 50%
Sphaerotheca fuliginea; 10 ppm
  Efficacy in %: 77%
Pyrenophora teres; barley, preventive spray, 250 ppm, evaluated 8 days after inoculation
  pest or weed control at 250 ppm: 33%

## C[Si](C)(C)CC(O)(Cn1cncn1)c1ccc(F)cc1 (stereo not drawn) [Ex B2 Simeconazole, Simeconazole]
Uromyces appendiculatus; 5 ppm
  Efficacy in %: 84%
Septoria tritici; 1000 ppm
  Efficacy in %: 67%

## Cn1cc(C(=O)Nc2ccc(F)cc2-c2ccc(Cl)c(Cl)c2)c(C(F)F)n1 [Ex B3 Bixafen, Bixafen]
Venturia inaequalis; 1 ppm
  Efficacy in %: 73%
Pyrenophora teres; [2]
  pest or weed control at 62.5 ppm: 78%

## N#Cc1c[nH]cc1-c1cccc2c1OC(F)(F)O2 [Ex B4 Fludioxonil, Fludioxonil]
Venturia inaequalis; 50 ppm
  Efficacy in %: 26%
Venturia inaequalis; 100 ppm
  Efficacy in %: 30%
Pyrenophora teres
  pest or weed control at 125 ppm: 44%
Uromyces appendiculatus; 200 ppm
  Efficacy in %: 70%

## COCC(=O)N(c1c(C)cccc1C)[C@H](C)C(=O)OC [Ex B4 Metalaxyl M, Metalaxyl M]
Venturia inaequalis; 200 ppm
  Efficacy in %: 29%
[1]; 250 ppm
  Efficacy in %: 0%

## COCC(=O)N(c1c(C)cccc1C)C(C)C(=O)OC (stereo not drawn) [Ex B4 Metalaxyl, Metalaxyl]
Septoria tritici; 1000 ppm
  Efficacy in %: 33%

## CCCN(CCOc1c(Cl)cc(Cl)cc1Cl)C(=O)n1ccnc1 [Ex B4 Prochloraz, Prochloraz]
Pyrenophora teres
  pest or weed control at 62.5 ppm: 89%

## N#Cc1ccccc1NC(=O)c1snc(Cl)c1Cl [Ex I-2]
Venturia inaequalis; 50 ppm
  Efficacy in %: 0%
Venturia inaequalis; 100 ppm
  Efficacy in %: 19%
Venturia inaequalis; 200 ppm
  Efficacy in %: 37%
[1]; 1000 ppm
  Efficacy in %: 22%
Pyrenophora teres
  pest or weed control at 250 ppm: 0%
  pest or weed control at 1000 ppm: 11%
Uromyces appendiculatus; 50 ppm
  Efficacy in %: 8%
Uromyces appendiculatus; 100 ppm
  Efficacy in %: 0%
Uromyces appendiculatus; 200 ppm
  Efficacy in %: 15%
Septoria tritici; 1000 ppm
  Efficacy in %: 0%

## Cc1nn(C)c(F)c1C(=O)Nc1ccccc1C(C)CC(C)C (stereo not drawn) [N-[2-(1,3-Dimethylbutyl)phenyl]-5-fluor-1,3-dimethyl-1H-pyrazole-4-carboxamide]
Pyrenophora teres; [2]
  pest or weed control at 62.5 ppm: 89%
